Reference: US4221787A, “Esteramide prodrugs of anti-inflammatory corticosteroids” (INTERx Research Corporation, priority 1979, dated 1980)

Experiments:
burned rat ear = assay: Effect of selected steroid derivatives on ear burn inflammation; format: in vivo, Sprague-Dawley rats; settings: 0.03 M steroid in isopropyl myristate, rat ear burned at 51.7° C. for 10 seconds, ears weighed after 16 hours, 5 rats
Procedure: The pressure of the cylinder on the rat ear was reproduced by using only the weight of the top brass cylinder (2.5 lbs) to apply the pressure. The burned rat ear was then immediately treated on both sides with […] of vehicle (isopropyl myristate) or 0.03 M steroid in the vehicle. After 16 hours, both ears of the rat were removed along anatomical guidelines and weighed.
The increase of weight caused by the burn was determined by subtracting the weight of the untreated left ear from the weight of the treated right ear.
The percent inhibition of inflammation was then determined as the weight increase of burned rat ears treated only with vehicle minus the weight increase of burned rat ears treated with vehicle containing the steroid divided by the weight increase of burned rat ears treated only with vehicle times one hundred.

mouse skin = settings: in vivo
Procedure: Effect of Selected Steroid Derivatives on Skin Thickness A modification of the method of Smith et al, Arch Derrmatol, 112, 1115 (1976), was used. Hairless mice were used instead of rats. The steroids were tested at 0.03 M in propyleneglycol suspension except for hydrocortisone 17-butyrate which was soluble. Each suspension (50 μl) was applied to the backs of 9 mice daily. On the twenty-ninth day of the experiment, the mice were sacrificed with carbon dioxide and the double fold skin thickness was immediately measured using an Ames micrometer accurate to 0.0001 inch at a pressure of 28 lb/cm^2. The measurement was taken after three minutes had elapsed from the time the mouse skin was placed in the micrometer.

thymus glands = assay: Effect of selected steroid derivatives on thymus weight (systemic effect); format: in vivo, Sprague-Dawley rats; settings: 48 hours after burn and application of 0.03 M steroid in isopropyl myristate; lower weight = more pronounced systemic effect; Control 233.5 ± 11.5
Procedure: A modification of the method of Tonelli et al, Endocrinology, 77, 625 (1965), was used. […] The rats were first anesthetized with phenobarbitol, then the right ear of each rat was burned on both side for 10 seconds between two vertically oriented brass cylinders heated with water at 51.7° C. from a constant temperature bath. The pressure of the cylinder on the rat ear was reproduced by using only the weight of the top brass cylinder (2.5 lbs) to apply the pressure. The burned rat ear was then immediately treated on both sides with […] of vehicle (isopropyl myristate) or 0.03 M steroid in the vehicle. After 16 hours, both ears of the rat were removed along anatomical guidelines and weighed.
Effect of Selected Steroid Derivatives on Thymus Weight
The rats used in the ear burn test described in Example 18 were revived and 48 hours after the burn and application of the steroid, they were sacrificed with carbon dioxide. Then their thymus glands were removed and weighed. The lower the weight of thymus, the more pronounced the systemic effect of the steroid.

| Structure (SMILES) | % Inhibition (of ear burn inflammation) (burned rat ear) [%] | % Decrease from Control (double fold skin thickness) (mouse skin) [%] | Thymus Weight (thymus glands) [mg] |
| --- | --- | --- | --- |
| C[C@]12CCC(=O)C=C1CC[C@@H]1[C@@H]2[C@@H](O)C[C@@]2(C)[C@H]1CC[C@]2(O)C(=O)COC(=O)[C@@H]1CCC(=O)N1 [4-Pregnene-11β,17α-dihydroxy-21-(2'-oxopyrrolidin-5'-yl)carbonyloxy-3,20-dione] | 50.5 | – | – |
| CCN(CC)C(=O)CCC(=O)OCC(=O)[C@@]1(O)CC[C@H]2[C@@H]3CCC4=CC(=O)CC[C@]4(C)[C@H]3[C@@H](O)C[C@@]21C [4-Pregnene-11β,17α-dihydroxy-21-(N,N-diethylsuccinamyloxy)-3,20-dione] | 49.2 | 26.7 | – |
| CCCC(=O)O[C@]1(C(=O)COC(=O)CCC(=O)N(CC)CC)CC[C@H]2[C@@H]3CCC4=CC(=O)CC[C@]4(C)[C@H]3[C@@H](O)C[C@@]21C [4-Pregnene-11β-Hydroxy-17α-butyryloxy-21-(N,N-diethylsuccinamyloxy)-3,20-dione] | 20.4 | – | – |
| CCCC(=O)O[C@]1(C(=O)CO)CC[C@H]2[C@@H]3CCC4=CC(=O)CC[C@]4(C)[C@H]3[C@@H](O)C[C@@]21C [Hydrocortisone 17-butyrate] | 28.9 | 39.2 | 149.6 ± 11.7 |
| CC(=O)OCC(=O)[C@@]1(O)CC[C@H]2[C@@H]3CCC4=CC(=O)CC[C@]4(C)[C@H]3[C@@H](O)C[C@@]21C [Hydrocortisone 21-acetate] | 31.0 | 37.5 | 177.2 ± 11.0 |
| C[C@]12CCC(=O)C=C1CC[C@@H]1[C@@H]2[C@@H](O)C[C@@]2(C)[C@H]1CC[C@]2(O)C(=O)CO [Hydrocortisone] | 3.3 | – | 190.3 ± 29.7 |
| CC1(C)O[C@@H]2C[C@H]3[C@@H]4CCC5=CC(=O)C=C[C@]5(C)[C@@]4(F)[C@@H](O)C[C@]3(C)[C@]2(C(=O)CO)O1 [Triamcinolone acetonide] | 53.8 | 45.8 | 65.3 ± 8.1 |
